One assay addresses FLT3 (Homo sapiens, UniProt P36888). Briefly: Kinase profiling (Kinase-Glo Plus or ADP-Glo). In kind it is biochemical. To be noted: averages of two separate experiments. As for the experimental part:
(§1) To better characterize kinase inhibition, the ability of E5 to inhibit a panel of purified kinases was assessed.
(§2) PDGFR kinase activity was measured using Caliper microfluidic mobility shift technology. Briefly, 2 μL compound solution (25 μM) in 25% DMSO per well were added into the 384 well microtiter plates. Then, 10 μL per well of enzyme solution (100 mM HEPES, 10 mM MgCl2, Brij35 (30%) 100 μL, 1 mM DTT, 20 ng enzyme) was added. After a brief centrifugation at 1,000 rpm, the kinase reactions were started by addition of 38 μL per well of peptide/ATP-solution (40 μM ATP, 6.5 μM peptide 5′-FAM-KKKKEEIYFFF-NH2, Tris-HCl buffer, pH 7.0) incubated at 30 °C for 60 min and stopped by the addition of 20 μL 35 mM EDTA per well. The electrophoretic separation of the phosphorylated and non-phosphorylated peptides was then carried out on LabChip EZ Reader II (Caliper Life Sciences). All other kinase reactions were carried out as previously reported using the Kinase-Glo Plus or ADP-Glo assay. Kinase inhibition rates were calculated per manufacturer’s instructions.
(Kinase-Glo reads ATP consumption through a luciferase reaction.)

Another assay concerns the target BLK (Homo sapiens, UniProt P51451). Briefly: Kinase profiling (Kinase-Glo Plus or ADP-Glo). In kind it is biochemical. As to conditions: averages of two separate experiments. The procedure: as §1, §2
The target in another assay is c-KIT (Homo sapiens, UniProt P10721). Briefly: Kinase profiling (Kinase-Glo Plus or ADP-Glo). In kind it is biochemical. To be noted: averages of two separate experiments. As for the experimental part:
as §1, §2

In the next assay the target is ABL1 (Homo sapiens, UniProt P00519). Briefly: Kinase profiling (Kinase-Glo Plus or ADP-Glo). In kind it is biochemical. To be noted: averages of two separate experiments. The procedure:
as §1, §2

In another assay the target is FGFR2 (Homo sapiens, UniProt P21802). Description: Kinase profiling (Kinase-Glo Plus or ADP-Glo). In kind it is biochemical. To be noted: averages of two separate experiments. As for the experimental part: as §1, §2
The next assay has as its target B-raf (Homo sapiens, UniProt P15056). Description: Kinase profiling (Kinase-Glo Plus or ADP-Glo). As to conditions: averages of two separate experiments. In kind it is biochemical. The procedure: as §1, §2
The next assay has as its target FGFR1 (Homo sapiens, UniProt P11362). Briefly: Kinase profiling (Kinase-Glo Plus or ADP-Glo). To be noted: averages of two separate experiments. In kind it is biochemical. The procedure: as §1, §2
Another assay concerns the target CSF1R (Homo sapiens, UniProt P07333). Description: Kinase profiling (Kinase-Glo Plus or ADP-Glo). In kind it is biochemical. To be noted: averages of two separate experiments. The procedure:
as §1, §2

The target in a further assay is Raf-1 (Homo sapiens, UniProt P04049). Description: Kinase profiling (Kinase-Glo Plus or ADP-Glo). In kind it is biochemical. To be noted: averages of two separate experiments. The procedure: as §1, §2
Raf-1, sequence (P04049 whole entry, species assumed): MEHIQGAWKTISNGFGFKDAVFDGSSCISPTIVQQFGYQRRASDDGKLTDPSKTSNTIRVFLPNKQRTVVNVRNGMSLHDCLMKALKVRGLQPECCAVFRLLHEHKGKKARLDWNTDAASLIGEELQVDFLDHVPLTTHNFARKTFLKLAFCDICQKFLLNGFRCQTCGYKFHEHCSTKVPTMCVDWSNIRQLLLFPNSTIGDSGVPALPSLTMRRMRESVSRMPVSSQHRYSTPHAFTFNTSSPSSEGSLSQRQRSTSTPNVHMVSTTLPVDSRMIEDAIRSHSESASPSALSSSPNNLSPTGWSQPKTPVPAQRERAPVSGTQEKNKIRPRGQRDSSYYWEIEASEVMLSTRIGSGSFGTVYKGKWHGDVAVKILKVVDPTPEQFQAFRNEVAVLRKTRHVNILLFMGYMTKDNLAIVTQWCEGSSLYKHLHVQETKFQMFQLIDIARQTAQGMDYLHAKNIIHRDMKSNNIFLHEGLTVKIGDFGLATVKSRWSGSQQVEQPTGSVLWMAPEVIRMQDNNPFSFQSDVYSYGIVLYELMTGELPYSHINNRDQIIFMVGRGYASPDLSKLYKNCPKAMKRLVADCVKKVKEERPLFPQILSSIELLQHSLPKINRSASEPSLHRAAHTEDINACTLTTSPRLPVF
Another assay deals with LCK (Homo sapiens, UniProt P06239). Description: Kinase profiling (Kinase-Glo Plus or ADP-Glo). In kind it is biochemical. As to conditions: averages of two separate experiments. As for the experimental part:
as §1, §2

The next assay has as its target ABL2 (Homo sapiens, UniProt P42684). Briefly: Kinase profiling (Kinase-Glo Plus or ADP-Glo). In kind it is biochemical. To be noted: averages of two separate experiments. As for the experimental part:
as §1, §2

The target of the next assay is EGFR (Homo sapiens, UniProt P00533). Description: Kinase profiling (Kinase-Glo Plus or ADP-Glo). In kind it is biochemical. As to conditions: averages of two separate experiments. The procedure:
as §1, §2

Assay [1] relates to HepG2 cells. Briefly: Cell cycle distribution by flow cytometry (PI). In kind it is cell-based. As to conditions: 24 h treatment. As for the experimental part: (§3) Cells were incubated with E5 for 24 h, after which cells were washed, stained and subjected to flow cytometry analysis. The cell cycle was analyzed by staining with propidium iodide (PI), and the extent of cell death/apoptosis was evaluated by double staining with annexin V-FITC and PI. The fluorescence was measured with a FACScan flow cytometer (Becton Dickinson, USA).
Background: In flow cytometry, cells or beads pass a laser one at a time.

Assay [2] concerns Bel7404 cells. Description: Cell cycle distribution by flow cytometry (PI). In kind it is cell-based. To be noted: 24 h treatment. The procedure: as §3
Assay [3] deals with HepG2 cells. Description: Apoptosis by Annexin V/PI flow cytometry. In kind it is cell-based. As to conditions: 24 h, Annexin V/PI double staining. The procedure:
(§4) We next explored the apoptosis-inducing ability of E5 in HCC cells. Bel7404 and HepG2 cells were treated with E5 for 24 h and stained with the fluorescent DNA-binding dye, Hoechst 33258. The cells were brightly stained in a dose-dependent manner, showing a typical morphological sign of apoptosis (Fig. 5A). […] Furthermore, E5 induced a specific cleavage of PARP and a decrease of pro-form of caspase-3, caspase-7 and caspase-9 (Fig. 5C). […] In addition, the pan-caspase inhibitor Z-VAD-FMK partially rescued the viability of HCC cells reduced by E5, implying that E5 might also induce non-apoptotic form of cell death (Fig. 5D).
as §3

Assay [4] relates to Bel7404 cells. Briefly: Apoptosis by Annexin V/PI flow cytometry. In kind it is cell-based. To be noted: 24 h, Annexin V/PI double staining. The procedure: as §4, §3
Assay [5] concerns HepG2 cells. Description: Autophagy: LC3-I to LC3-II conversion, Western blot. In kind it is cell-based. From the text: (§5) To investigate whether E5 triggers autophagic cell death in HCC cells, several characteristic events of autophagy were examined using different techniques. First, E5 stimulated LC3 puncta formation in HCC cells transfected with adenovirus expressing GFP-LC3 fusion protein as detected by fluorescence microscopy (Fig. 6A). […] Third, the effects of E5 on autophagy flux was examined by co-treatment of E5 with chloroquine (CQ), an inhibitor that prevents the formation of autolysosomes by inhibiting autophagosome-lysosome fusion and […] degradation. […] Fourth, E5 increased the expression of Atg5, which is essential for the elongation of autophagosomes (Fig. 6B), and the cell viability by E5 treatment was increased in HCC cells by knockdown of Atg5 (Fig. 6E). Finally, treatment with 3-methyladenine (3-MA), an autophagy inhibitor, partially reversed E5-induced cell death in HCC cells (Fig. 6F).
(§6) After treatment with E5 for 24 h, cells were lysed in RIPA cell lysis buffer. Equal amount of protein (30–40 μg) was separated on a 12% or 15% SDS-PAGE and transferred electrophoretically onto a 0.45 μm PVDF membrane. Then, the membrane was blocked for 2 h at room temperature with 5% non-fat dried milk in TBS buffer and incubated with appropriate antibodies at 1:1000 (overnight, 4 °C). […]
On the technique in general: In western blotting, separated proteins are transferred to a membrane and probed.

In assay [6] the test system is Bel7404 cells. Described as above. In kind it is cell-based.
From the text: as §5, §6

CSF1R, sequence (P07333 20-972): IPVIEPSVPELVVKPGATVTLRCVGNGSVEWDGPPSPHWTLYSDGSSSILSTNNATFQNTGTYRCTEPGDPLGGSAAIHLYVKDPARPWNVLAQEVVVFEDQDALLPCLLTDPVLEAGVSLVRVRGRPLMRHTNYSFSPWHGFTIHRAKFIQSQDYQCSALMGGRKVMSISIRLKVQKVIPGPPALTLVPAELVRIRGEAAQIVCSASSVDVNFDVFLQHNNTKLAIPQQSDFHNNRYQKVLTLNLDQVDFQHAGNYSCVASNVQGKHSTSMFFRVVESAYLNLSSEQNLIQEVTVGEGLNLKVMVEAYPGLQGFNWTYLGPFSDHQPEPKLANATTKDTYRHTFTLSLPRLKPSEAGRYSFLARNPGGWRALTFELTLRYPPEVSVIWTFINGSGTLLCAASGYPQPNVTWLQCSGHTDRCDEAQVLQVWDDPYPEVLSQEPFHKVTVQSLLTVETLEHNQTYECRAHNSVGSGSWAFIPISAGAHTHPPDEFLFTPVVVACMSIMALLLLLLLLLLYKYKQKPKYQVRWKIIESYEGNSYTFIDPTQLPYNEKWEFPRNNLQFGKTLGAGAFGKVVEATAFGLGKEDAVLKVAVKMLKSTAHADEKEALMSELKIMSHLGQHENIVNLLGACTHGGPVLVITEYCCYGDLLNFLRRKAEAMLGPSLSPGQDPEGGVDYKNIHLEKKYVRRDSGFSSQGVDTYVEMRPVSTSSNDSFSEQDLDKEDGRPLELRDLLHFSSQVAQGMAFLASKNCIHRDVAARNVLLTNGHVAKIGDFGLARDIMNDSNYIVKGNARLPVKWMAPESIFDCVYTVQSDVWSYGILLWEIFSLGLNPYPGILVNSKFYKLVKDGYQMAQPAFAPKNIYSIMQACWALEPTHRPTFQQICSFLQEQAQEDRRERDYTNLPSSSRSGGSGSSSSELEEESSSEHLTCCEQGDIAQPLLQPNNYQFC
FLT3, sequence (P36888 27-993, species assumed): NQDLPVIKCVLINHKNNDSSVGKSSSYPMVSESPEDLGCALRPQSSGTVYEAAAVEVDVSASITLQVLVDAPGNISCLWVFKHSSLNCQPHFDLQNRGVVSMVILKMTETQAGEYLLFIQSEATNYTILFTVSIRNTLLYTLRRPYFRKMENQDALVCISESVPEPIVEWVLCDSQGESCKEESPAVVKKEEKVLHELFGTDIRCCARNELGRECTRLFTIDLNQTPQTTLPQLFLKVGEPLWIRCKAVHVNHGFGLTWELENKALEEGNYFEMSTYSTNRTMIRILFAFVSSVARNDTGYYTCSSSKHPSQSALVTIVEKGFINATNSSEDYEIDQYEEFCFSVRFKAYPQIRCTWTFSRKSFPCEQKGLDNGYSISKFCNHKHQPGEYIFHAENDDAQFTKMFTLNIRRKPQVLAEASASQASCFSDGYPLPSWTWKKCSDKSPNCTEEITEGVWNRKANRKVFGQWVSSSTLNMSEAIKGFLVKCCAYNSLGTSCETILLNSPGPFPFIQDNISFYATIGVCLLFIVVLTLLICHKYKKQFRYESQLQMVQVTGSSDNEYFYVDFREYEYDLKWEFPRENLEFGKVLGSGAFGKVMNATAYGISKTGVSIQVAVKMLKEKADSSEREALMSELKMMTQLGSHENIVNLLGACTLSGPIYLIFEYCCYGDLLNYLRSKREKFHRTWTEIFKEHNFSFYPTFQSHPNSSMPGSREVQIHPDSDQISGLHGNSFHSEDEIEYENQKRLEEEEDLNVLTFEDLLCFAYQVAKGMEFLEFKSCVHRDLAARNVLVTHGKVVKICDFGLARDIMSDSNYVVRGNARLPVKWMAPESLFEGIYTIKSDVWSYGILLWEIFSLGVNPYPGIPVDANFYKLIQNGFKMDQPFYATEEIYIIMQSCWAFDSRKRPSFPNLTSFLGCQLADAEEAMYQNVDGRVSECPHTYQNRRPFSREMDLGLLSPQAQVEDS
EGFR, sequence (P00533 25-1210, species assumed): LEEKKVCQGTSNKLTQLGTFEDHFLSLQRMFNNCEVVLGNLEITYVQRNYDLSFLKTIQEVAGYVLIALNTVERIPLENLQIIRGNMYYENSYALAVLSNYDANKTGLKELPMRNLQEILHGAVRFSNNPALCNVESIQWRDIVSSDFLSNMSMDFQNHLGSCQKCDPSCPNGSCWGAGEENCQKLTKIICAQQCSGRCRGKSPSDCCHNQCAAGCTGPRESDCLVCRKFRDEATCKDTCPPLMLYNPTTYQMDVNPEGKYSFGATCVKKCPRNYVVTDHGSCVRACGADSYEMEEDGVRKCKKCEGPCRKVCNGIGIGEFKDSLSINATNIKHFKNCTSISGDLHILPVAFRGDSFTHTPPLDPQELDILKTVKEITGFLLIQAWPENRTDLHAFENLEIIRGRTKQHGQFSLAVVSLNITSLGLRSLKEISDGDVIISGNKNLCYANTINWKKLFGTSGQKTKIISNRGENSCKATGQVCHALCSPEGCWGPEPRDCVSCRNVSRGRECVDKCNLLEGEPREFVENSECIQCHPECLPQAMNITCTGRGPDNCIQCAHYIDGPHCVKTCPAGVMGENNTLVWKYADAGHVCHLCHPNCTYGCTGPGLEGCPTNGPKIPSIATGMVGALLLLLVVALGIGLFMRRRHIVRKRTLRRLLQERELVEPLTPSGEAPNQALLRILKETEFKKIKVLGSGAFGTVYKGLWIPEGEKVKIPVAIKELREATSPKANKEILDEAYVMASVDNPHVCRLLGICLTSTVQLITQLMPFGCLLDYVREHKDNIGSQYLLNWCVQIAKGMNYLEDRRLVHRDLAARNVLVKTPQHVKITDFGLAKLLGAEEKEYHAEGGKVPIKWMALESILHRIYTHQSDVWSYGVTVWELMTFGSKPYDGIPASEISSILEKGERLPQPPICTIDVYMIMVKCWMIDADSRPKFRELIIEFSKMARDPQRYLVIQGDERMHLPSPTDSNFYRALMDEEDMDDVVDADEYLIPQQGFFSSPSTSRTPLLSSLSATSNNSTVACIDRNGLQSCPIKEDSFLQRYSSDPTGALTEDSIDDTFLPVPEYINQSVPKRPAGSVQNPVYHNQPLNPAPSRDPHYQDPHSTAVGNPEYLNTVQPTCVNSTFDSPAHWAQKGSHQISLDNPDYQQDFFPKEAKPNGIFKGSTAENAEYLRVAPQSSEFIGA
FGFR1, sequence (P11362 22-822, species assumed): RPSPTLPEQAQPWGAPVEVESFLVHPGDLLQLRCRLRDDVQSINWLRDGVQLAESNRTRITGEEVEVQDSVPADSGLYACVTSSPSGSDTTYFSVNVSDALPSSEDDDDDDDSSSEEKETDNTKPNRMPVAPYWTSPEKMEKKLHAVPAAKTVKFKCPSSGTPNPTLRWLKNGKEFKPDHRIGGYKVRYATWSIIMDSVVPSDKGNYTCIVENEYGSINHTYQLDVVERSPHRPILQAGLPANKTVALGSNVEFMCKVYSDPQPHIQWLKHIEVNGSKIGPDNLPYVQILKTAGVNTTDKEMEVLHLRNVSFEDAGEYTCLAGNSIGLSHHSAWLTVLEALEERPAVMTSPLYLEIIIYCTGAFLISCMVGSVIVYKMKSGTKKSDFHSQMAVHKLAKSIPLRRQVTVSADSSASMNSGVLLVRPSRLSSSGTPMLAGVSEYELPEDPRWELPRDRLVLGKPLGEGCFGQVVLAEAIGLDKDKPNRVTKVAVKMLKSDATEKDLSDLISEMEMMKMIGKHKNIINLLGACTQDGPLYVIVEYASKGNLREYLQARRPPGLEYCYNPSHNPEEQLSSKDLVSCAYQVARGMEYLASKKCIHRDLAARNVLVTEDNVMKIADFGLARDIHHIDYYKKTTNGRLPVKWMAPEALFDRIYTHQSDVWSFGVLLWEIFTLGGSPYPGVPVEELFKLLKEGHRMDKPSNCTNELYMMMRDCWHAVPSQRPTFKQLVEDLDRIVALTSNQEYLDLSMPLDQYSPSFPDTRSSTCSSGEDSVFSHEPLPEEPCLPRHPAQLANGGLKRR
LCK, sequence (P06239 whole entry, species assumed): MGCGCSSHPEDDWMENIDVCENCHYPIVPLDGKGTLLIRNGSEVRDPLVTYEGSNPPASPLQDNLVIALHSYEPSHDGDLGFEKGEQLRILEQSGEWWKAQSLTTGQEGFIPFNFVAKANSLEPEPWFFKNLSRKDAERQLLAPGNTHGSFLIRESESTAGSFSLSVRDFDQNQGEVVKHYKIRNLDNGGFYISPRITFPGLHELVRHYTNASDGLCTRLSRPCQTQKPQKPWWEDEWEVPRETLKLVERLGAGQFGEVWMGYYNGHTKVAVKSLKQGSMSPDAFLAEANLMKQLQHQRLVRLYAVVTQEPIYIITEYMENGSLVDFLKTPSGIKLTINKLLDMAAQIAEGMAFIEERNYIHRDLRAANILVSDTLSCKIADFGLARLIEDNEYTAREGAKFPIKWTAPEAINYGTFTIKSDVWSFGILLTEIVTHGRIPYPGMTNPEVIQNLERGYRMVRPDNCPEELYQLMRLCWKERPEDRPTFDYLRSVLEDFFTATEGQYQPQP

For orientation: IC50 means the concentration at which inhibition is half-maximal. Take `Cc1ccc(NC(=O)c2ccc(CN3CCN(C)CC3)cc2)cc1Oc1nccc(-c2cc3ccccc3o2)n1` [E5, N-(3-((4-(benzofuran-2-yl)pyrimidin-2-yl)oxy)-4-methylphenyl)-4-((4-methylpiperazin-1-yl)methyl)benzamide]: the IC50 on FLT3 was > 25 µM; at BLK, > 25 µM; at c-KIT it was 0.51 µM; on ABL1, 9.35 µM; at FGFR2 it was > 25 µM; at B-raf, > 25 µM. Moreover, the IC50 on FGFR1 was > 25 µM; at CSF1R it was 1.12 µM; on Raf-1 it was > 25 µM; at LCK, > 25 µM; at ABL2 it was 4.36 µM; at EGFR, > 25 µM. On FLT3, the “IC50 FLT3” value was “no inhibition”. The “IC50 CSF1R” value at CSF1R is “moderate inhibitory activity”. The “Effect on cell cycle distribution” value with HepG2 cells [1] and with Bel7404 cells [2] was “elicited G2/M phase arrest in a dose-dependent manner” throughout. In addition, the Apoptosis induction result with HepG2 cells [3] and in the assay on Bel7404 cells [4] was “induced apoptosis in a dose-dependent manner” throughout. The “Conversion of LC3-I to LC3-II” value with HepG2 cells [5] is “induced the conversion of LC3-I to LC3-II in a dose- and time-dependent manner”; with Bel7404 cells [6], “induced the conversion of LC3-I to LC3-II in a dose- and time-dependent manner”.

For the origin of these results see article PMC6053381, “Novel 2-phenyloxypyrimidine derivative induces apoptosis and autophagy via inhibiting PI3K pathway and activating MAPK/ERK signaling in hepatocellular carcinoma cells” (Scientific Reports, 2018).
